Key:
human PPARα = target: T1, human PPARα (Homo sapiens, UniProt Q07869); assay: Transactivation assay (GAL4–hPPARα-LBD chimera, luciferase reporter, COS-7 cells); type: cell-based; settings: for Emax: 100% = 1 µM GW7647, read-out: Efficacy, PPARα transactivation (% of the maximal response); for EC50: GAL4–hPPARα-LBD
T1 construct: expressed in transfected cells; host or cells: COS-7
T1 sequence (Q07869 239-466 limits assumed): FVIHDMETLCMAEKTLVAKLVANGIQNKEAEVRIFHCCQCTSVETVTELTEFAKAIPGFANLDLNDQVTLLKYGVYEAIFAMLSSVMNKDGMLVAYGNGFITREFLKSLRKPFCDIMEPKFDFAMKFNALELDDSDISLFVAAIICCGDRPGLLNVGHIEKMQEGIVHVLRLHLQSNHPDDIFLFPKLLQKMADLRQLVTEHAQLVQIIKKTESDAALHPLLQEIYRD
Method: (§1) The pSG5-GAL–hPPARα/δ/γ plasmids express fusion proteins comprising the yeast transcription factor GAL4 DNA-binding domain and each of the human PPARα/δ/γ-LBDs. The MH100(UAS)×4-tk-Luc plasmid contains four copies of the MH100 GAL4 binding site and the Firefly luciferase gene. The cells were transfected with those plasmids and were treated with various PPAR ligands, and both Firefly and Renilla luciferase activities were measured using the Dual-Glo Luciferase Assay System (Promega, Madison, WI, USA) as described previously. […] GW1929 was purchased from Sigma-Aldrich (St. Louis, MO, USA).
(§2) For the undertaking of the comparison of the potency, efficacy, and selectivity of the five PPAR ligands (Figure 1A) against the PPAR subtypes, we evaluated their PPARα/δ/γ activation using three different methods: a cell-based transactivation assay, a coactivator recruitment assay, and a thermal stability assay, as we previously performed on three fibrates (namely, bezafibrate, fenofibric acid, and pemafibrate). The cell-based transactivation assay utilizing the Gal4–PPAR-LBD system is the most widely used method for the determination of PPAR activation by certain ligands, although their responses depend on the used cell types in which several coactivators with altered functions are differentially expressed.
(§3) Figure 1 LBD-mediated human PPARα/δ/γ transactivation by PPAR ligands. (A) Chemical structures of the five PPAR ligands used in this study. […] Data are presented as the mean ± standard error (SE) of three independent experiments with duplicate samples.

human PPARδ = target: T2, human PPARδ (Homo sapiens, UniProt Q03181); assay: Transactivation assay (GAL4–hPPARδ-LBD chimera, luciferase reporter, COS-7 cells); type: cell-based; settings: for Emax: COS-7, read-out: Efficacy, PPARδ transactivation (% of the maximal response); for EC50: COS-7 cells, GAL4–hPPARδ-LBD
T2 construct: expressed in transfected cells; host or cells: COS-7
T2 sequence (Q03181 211-439 limits assumed): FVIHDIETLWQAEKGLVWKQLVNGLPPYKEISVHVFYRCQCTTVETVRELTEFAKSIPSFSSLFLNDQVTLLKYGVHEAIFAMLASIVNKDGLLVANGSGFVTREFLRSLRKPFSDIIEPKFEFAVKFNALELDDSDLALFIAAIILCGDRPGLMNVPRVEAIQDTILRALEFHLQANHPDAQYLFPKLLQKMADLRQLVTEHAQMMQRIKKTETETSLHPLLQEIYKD
Method: as §1, §2, §3

PPARγ-LBD [1] = target: T3, PPARγ-LBD (Homo sapiens, UniProt P37231); assay: TR-FRET SRC1 coactivator recruitment assay; type: biochemical; design: PPARγ-LBD (amino acids 203–477 in isoform 1); made in house; host or cells: Rosetta (DE3) pLysS (E. coli); settings: SRC1 peptide, read-out: EC50, SRC1 recruitment to PPARγ-LBD
T3 sequence (P37231 203-477 isoform P37231-2): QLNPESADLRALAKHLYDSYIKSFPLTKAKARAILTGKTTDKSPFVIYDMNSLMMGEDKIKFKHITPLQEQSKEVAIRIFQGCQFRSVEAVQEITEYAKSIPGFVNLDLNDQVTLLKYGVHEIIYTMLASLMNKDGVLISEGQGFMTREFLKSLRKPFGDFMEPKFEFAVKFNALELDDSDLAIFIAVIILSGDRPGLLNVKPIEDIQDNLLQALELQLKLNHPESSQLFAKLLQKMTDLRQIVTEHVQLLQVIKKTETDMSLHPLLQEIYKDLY
Method: Subsequently, 5 µL of 4 nM Eu-W1024-labeled anti-6×His antibody/80 nM ULight-Streptavidin (PerkinElmer) was added to each well, and the microplate was incubated in the dark for 2 h, at room temperature. […] The nonlinear fitting and the calculation of the EC50 were performed using the Prism 9 software (GraphPad, San Diego, CA, USA).
The ligand-bound activated forms of PPARs are stabilized by associations with specific coactivators, thereby enabling the regulation of specific gene expression.
Figure 2 TR-FRET-based LBD-mediated human PPARα/δ/γ coactivator recruitment assay. […] Data are presented as the mean ± SE of three or four independent experiments with duplicate samples, and the calculated EC50 values are shown.

PPARγ-LBD [2] = target: T3, PPARγ-LBD; assay: Thermal stability assay using circular dichroism spectroscopy; type: binding; design: PPARγ-LBD (amino acids 203–477 in isoform 1); His tag (pET28a) (N); made in house; host or cells: Rosetta (DE3) pLysS (E. coli); settings: CD at 222 nm, 10 µM LBD; for Effect on Tm of PPARγ-LBD (in words): GW1929 at 10 µM
Method: PPARα/δ/γ-LBD proteins (10 µM) were incubated with different concentrations of ligands in buffer C consisting of 20 mM Tris-HCl (pH 8.0), 150 mM NaCl, 1 mM Tris 2-carboxyethylphosphine (TCEP)-HCl, and 10% glycerol. The circular dichroism (CD) spectra were monitored within a 200–260 nm range at increasing temperatures from 30 °C to 70 °C (2 °C/min) using a J-1500 spectropolarimeter equipped with a PTC-510 thermal controller (JASCO, Tokyo, Japan). […] The ligand-induced increases in the Tm values were defined as ∆Tm.
Nuclear receptors, including PPARs, display an increased thermal stability upon ligand binding, which is detectable through CD spectroscopy.
Figure 3 Circular dichroism-based PPARα/δ/γ-LBD thermal stability assay. […] Data are presented as the mean ± SE of three or four (in parentheses) independent experiments. Differences vs. basal levels (with 0.1% DMSO) were statistically assessed by one-way ANOVA, followed by a Dunnett’s post hoc test: * p < 0.05, ** p < 0.01, and *** p < 0.001.

Row | SMILES | Emax (human PPARα) [%] | EC50 (human PPARα) [nM] | Emax (human PPARδ) [%] | EC50 (human PPARδ) [nM] | EC50 (PPARγ-LBD [1]) [nM] | Effect on Tm of PPARγ-LBD (in words) (PPARγ-LBD [2]) | Relative ∆Tm response, PPARγ-LBD (highest value) (PPARγ-LBD [2]; 100% = ∆Tm by 10 µM GW1929) [%]
1 | CCO[C@@H](Cc1ccc(OCCn2c(C)ccc2-c2ccc(SC)cc2)cc1)C(=O)O [saroglitazar] | 56.4 | 190 | 6 | > 10000 | 3440 | highly increased the Tm values | –
2 | CSc1ccc(C(=O)/C=C/c2cc(C)c(OC(C)(C)C(=O)O)c(C)c2)cc1 [elafibranor] | 38.5 | 388 | 14.8 | – | 11800 | did not significantly alter the Tm values | –
3 | CCO[C@H](COc1ccc(C(F)(F)F)cc1)CSc1ccc(OCC(=O)O)c(C)c1 [seladelpar] | 41 | 1640 | 99.3 | 20.2 | > 300000 | increased the Tm values | –
4 | O=C(O)CCCc1cc2cc(Cl)ccc2n1S(=O)(=O)c1ccc2ncsc2c1 [lanifibranor] | 13.3 | 4660 | 13.3 | 398 | 7570 | increased the Tm values | 61.4

Reference: PMC10451623 (Antioxidants, 2023)
